Measured values published in the supplement of paper PMC10307832.

Tests used:
Assay in all cases: relative viability (nuclei count vs DMSO), 5 days (fraction); higher = more cells survive
[1] = compound: O=S(=O)(c1ccccc1)N(CC(F)(F)F)c1ccc(C(O)(C(F)(F)F)C(F)(F)F)cc1 + Nc1ncn([C@H]2C[C@H](O)[C@@H](CO)O2)c(=O)n1 [Decitabine] (partner 2 µM)
Summary of the method: (§1)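 Lung cancer cell lines in 1536-well plates were dosed by pin tool the day after seeding, either with one drug alone or with a fixed anchor-drug dose plus five library-drug doses (not always all listed) in √10 steps. After 5 days, cells were fixed and their nuclei stained in one step (final 0.05% Triton X-100, 1% formaldehyde, 1 ug/ml Hoechst), then counted on 4× images. Relative viability is the nuclei count in treated wells divided by that in vehicle wells. Values are medians of duplicate plates.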

[2] = compound: O=S(=O)(c1ccccc1)N(CC(F)(F)F)c1ccc(C(O)(C(F)(F)F)C(F)(F)F)cc1 + CC(C)C[C@H](NC(=O)[C@H](Cc1ccccc1)NC(=O)c1cnccn1)B(O)O [Bortezomib] (partner 0.002 µM)
Summary of the method: as §1

[3] = compound: O=S(=O)(c1ccccc1)N(CC(F)(F)F)c1ccc(C(O)(C(F)(F)F)C(F)(F)F)cc1 + CS(=O)(=O)N1CCN(Cc2cc3nc(-c4cccc5[nH]ncc45)nc(N4CCOCC4)c3s2)CC1 [Pictilisib] (partner 1 µM)
Summary of the method: as §1

[4] = compound: O=S(=O)(c1ccccc1)N(CC(F)(F)F)c1ccc(C(O)(C(F)(F)F)C(F)(F)F)cc1 + CC1(C)CCC(c2ccc(Cl)cc2)=C(CN2CCN(c3ccc(C(=O)NS(=O)(=O)c4ccc(N[C@H](CCN5CCOCC5)CSc5ccccc5)c(S(=O)(=O)C(F)(F)F)c4)cc3)CC2)C1 [Navitoclax] (partner 0.5 µM)
Summary of the method: as §1

[5] = compound: O=S(=O)(c1ccccc1)N(CC(F)(F)F)c1ccc(C(O)(C(F)(F)F)C(F)(F)F)cc1 + C[C@@H](Oc1cc(-c2cnn(C3CCNCC3)c2)cnc1N)c1c(Cl)ccc(F)c1Cl [Crizotinib] (partner 1 µM)
Summary of the method: as §1

RO-3306 + Pemetrexed = compound: C1=CC2=C(C=CC(=C2)C=C3C(=O)NC(=NCC4=CC=CS4)S3)N=C1 [RO-3306] + Nc1nc2[nH]cc(CCc3ccc(C(=O)N[C@@H](CCC(=O)O)C(=O)O)cc3)c2c(=O)[nH]1 [Pemetrexed] (partner 0.2 µM)
Summary of the method: as §1

## NCI-H2023
[1]; first compound 0.8 µM
  relative viability: 0.221
[1]; first compound 2.53 µM
  relative viability: 0.233
[1]; first compound 8 µM
  relative viability: 0.221
[2]; first compound 0.8 µM
  relative viability: 1
[2]; first compound 2.53 µM
  relative viability: 0.899
[2]; first compound 8 µM
  relative viability: 0.831
[3]; first compound 0.8 µM
  relative viability: 0.183
[3]; first compound 2.53 µM
  relative viability: 0.221
[3]; first compound 8 µM
  relative viability: 0.193
[4]; first compound 0.8 µM
  relative viability: 1.07
[4]; first compound 2.53 µM
  relative viability: 0.888
[4]; first compound 8 µM
  relative viability: 0.845
[5]; first compound 0.8 µM
  relative viability: 0.754
[5]; first compound 2.53 µM
  relative viability: 0.524
[5]; first compound 8 µM
  relative viability: 0.61
RO-3306 + Pemetrexed; first compound 0.01 µM
  relative viability: 0.233
RO-3306 + Pemetrexed; first compound 0.03162 µM
  relative viability: 0.23
RO-3306 + Pemetrexed; first compound 0.1 µM
  relative viability: 0.209
RO-3306 + Pemetrexed; first compound 0.3162 µM
  relative viability: 0.274
RO-3306 + Pemetrexed; first compound 1 µM
  relative viability: 0.262

## NCI-H1734
[1]; first compound 0.8 µM
  relative viability: 0.524
[1]; first compound 2.53 µM
  relative viability: 0.477
[1]; first compound 8 µM
  relative viability: 0.477
[2]; first compound 0.8 µM
  relative viability: 1.18
[2]; first compound 2.53 µM
  relative viability: 0.917
[2]; first compound 8 µM
  relative viability: 1.07
[3]; first compound 0.8 µM
  relative viability: 0.549
[3]; first compound 2.53 µM
  relative viability: 0.48
[3]; first compound 8 µM
  relative viability: 0.429
[4]; first compound 0.8 µM
  relative viability: 1.14
[4]; first compound 2.53 µM
  relative viability: 0.809
[4]; first compound 8 µM
  relative viability: 0.801
[5]; first compound 0.8 µM
  relative viability: 0.789
[5]; first compound 2.53 µM
  relative viability: 0.728
[5]; first compound 8 µM
  relative viability: 0.649
RO-3306 + Pemetrexed; first compound 0.01 µM
  relative viability: 0.394
RO-3306 + Pemetrexed; first compound 0.03162 µM
  relative viability: 0.41
RO-3306 + Pemetrexed; first compound 0.1 µM
  relative viability: 0.372
RO-3306 + Pemetrexed; first compound 0.3162 µM
  relative viability: 0.414
RO-3306 + Pemetrexed; first compound 1 µM
  relative viability: 0.432

## COR-L23
[1]; first compound 0.8 µM
  relative viability: 0.428
[1]; first compound 2.53 µM
  relative viability: 0.439
[1]; first compound 8 µM
  relative viability: 0.461
[2]; first compound 0.8 µM
  relative viability: 1.18
[2]; first compound 2.53 µM
  relative viability: 0.945
[2]; first compound 8 µM
  relative viability: 0.914
[3]; first compound 0.8 µM
  relative viability: 1.23
[3]; first compound 2.53 µM
  relative viability: 0.796
[3]; first compound 8 µM
  relative viability: 0.901
[4]; first compound 0.8 µM
  relative viability: 1.14
[4]; first compound 2.53 µM
  relative viability: 1.03
[4]; first compound 8 µM
  relative viability: 0.913
[5]; first compound 0.8 µM
  relative viability: 0.644
[5]; first compound 2.53 µM
  relative viability: 0.472
[5]; first compound 8 µM
  relative viability: 0.597
RO-3306 + Pemetrexed; first compound 0.01 µM
  relative viability: 0.179
RO-3306 + Pemetrexed; first compound 0.03162 µM
  relative viability: 0.216
RO-3306 + Pemetrexed; first compound 0.1 µM
  relative viability: 0.214
RO-3306 + Pemetrexed; first compound 0.3162 µM
  relative viability: 0.194
RO-3306 + Pemetrexed; first compound 1 µM
  relative viability: 0.187

## NCI-H596
[1]; first compound 0.8 µM
  relative viability: 1.04
[1]; first compound 2.53 µM
  relative viability: 0.899
[1]; first compound 8 µM
  relative viability: 1.05
[2]; first compound 0.8 µM
  relative viability: 0.997
[2]; first compound 2.53 µM
  relative viability: 0.791
[2]; first compound 8 µM
  relative viability: 0.843
[3]; first compound 0.8 µM
  relative viability: 0.353
[3]; first compound 2.53 µM
  relative viability: 0.342
[3]; first compound 8 µM
  relative viability: 0.335
[4]; first compound 0.8 µM
  relative viability: 1.02
[4]; first compound 2.53 µM
  relative viability: 0.904
[4]; first compound 8 µM
  relative viability: 0.826
[5]; first compound 0.8 µM
  relative viability: 0.921
[5]; first compound 2.53 µM
  relative viability: 0.947
[5]; first compound 8 µM
  relative viability: 0.926
RO-3306 + Pemetrexed; first compound 0.01 µM
  relative viability: 0.519
RO-3306 + Pemetrexed; first compound 0.03162 µM
  relative viability: 0.403
RO-3306 + Pemetrexed; first compound 0.1 µM
  relative viability: 0.467
RO-3306 + Pemetrexed; first compound 0.3162 µM
  relative viability: 0.522
RO-3306 + Pemetrexed; first compound 1 µM
  relative viability: 0.452

## BEN
[1]; first compound 0.8 µM
  relative viability: 0.801
[1]; first compound 2.53 µM
  relative viability: 0.773
[1]; first compound 8 µM
  relative viability: 0.687
[2]; first compound 0.8 µM
  relative viability: 0.843
[2]; first compound 2.53 µM
  relative viability: 0.844
[2]; first compound 8 µM
  relative viability: 0.866
[3]; first compound 0.8 µM
  relative viability: 0.585
[3]; first compound 2.53 µM
  relative viability: 0.533
[3]; first compound 8 µM
  relative viability: 0.616
[4]; first compound 0.8 µM
  relative viability: 0.0593
[4]; first compound 2.53 µM
  relative viability: 0.0841
[4]; first compound 8 µM
  relative viability: 0.0468
[5]; first compound 0.8 µM
  relative viability: 0.952
[5]; first compound 2.53 µM
  relative viability: 0.89
[5]; first compound 8 µM
  relative viability: 0.766
RO-3306 + Pemetrexed; first compound 0.01 µM
  relative viability: 0.634
RO-3306 + Pemetrexed; first compound 0.03162 µM
  relative viability: 0.735
RO-3306 + Pemetrexed; first compound 0.1 µM
  relative viability: 0.728
RO-3306 + Pemetrexed; first compound 0.3162 µM
  relative viability: 0.769
RO-3306 + Pemetrexed; first compound 1 µM
  relative viability: 0.803

## HCC-15
[1]; first compound 0.8 µM
  relative viability: 0.562
[1]; first compound 2.53 µM
  relative viability: 0.419
[1]; first compound 8 µM
  relative viability: 0.5
[2]; first compound 0.8 µM
  relative viability: 1.08
[2]; first compound 2.53 µM
  relative viability: 0.923
[2]; first compound 8 µM
  relative viability: 0.948
[3]; first compound 0.8 µM
  relative viability: 0.785
[3]; first compound 2.53 µM
  relative viability: 0.684
[3]; first compound 8 µM
  relative viability: 0.654
[4]; first compound 0.8 µM
  relative viability: 0.639
[4]; first compound 2.53 µM
  relative viability: 0.593
[4]; first compound 8 µM
  relative viability: 0.619
[5]; first compound 0.8 µM
  relative viability: 0.867
[5]; first compound 2.53 µM
  relative viability: 0.766
[5]; first compound 8 µM
  relative viability: 0.676
RO-3306 + Pemetrexed; first compound 0.01 µM
  relative viability: 0.203
RO-3306 + Pemetrexed; first compound 0.03162 µM
  relative viability: 0.21
RO-3306 + Pemetrexed; first compound 0.1 µM
  relative viability: 0.26
RO-3306 + Pemetrexed; first compound 0.3162 µM
  relative viability: 0.225
RO-3306 + Pemetrexed; first compound 1 µM
  relative viability: 0.199

## NCI-H460
[1]; first compound 0.8 µM
  relative viability: 0.681
[1]; first compound 2.53 µM
  relative viability: 0.462
[1]; first compound 8 µM
  relative viability: 0.349
[2]; first compound 0.8 µM
  relative viability: 1.29
[2]; first compound 2.53 µM
  relative viability: 1.03
[2]; first compound 8 µM
  relative viability: 1.02
[3]; first compound 0.8 µM
  relative viability: 0.436
[3]; first compound 2.53 µM
  relative viability: 0.333
[3]; first compound 8 µM
  relative viability: 0.362
[4]; first compound 0.8 µM
  relative viability: 1.42
[4]; first compound 2.53 µM
  relative viability: 1.01
[4]; first compound 8 µM
  relative viability: 0.967
[5]; first compound 0.8 µM
  relative viability: 0.824
[5]; first compound 2.53 µM
  relative viability: 1.03
[5]; first compound 8 µM
  relative viability: 1
RO-3306 + Pemetrexed; first compound 0.01 µM
  relative viability: 0.0602
RO-3306 + Pemetrexed; first compound 0.03162 µM
  relative viability: 0.0669
RO-3306 + Pemetrexed; first compound 0.1 µM
  relative viability: 0.0671
RO-3306 + Pemetrexed; first compound 0.3162 µM
  relative viability: 0.0618
RO-3306 + Pemetrexed; first compound 1 µM
  relative viability: 0.0563
